Test results taken from patent US20190367448A1, “TREATMENT OF SLEEP-WAKE DISORDERS” (SK Biopharmaceuticals Co., Ltd., priority 2005, published 2019).

Tested on: male adult Sprague Dawley rats
Test: Sleep-wake organization in rats, polysomnographic recording (EEG, EOG, EMG, body movement) for 16 hours after acute i.p. administration
Format: in vivo, rat
Settings: for Duration (min) Active wake / Duration (min) Deep sleep / Duration (min) Light sleep / Duration (min) Passive wake / Duration (min) REM sleep / Duration (min) intermediate stage / ISWS/TST (%) / Latency (min) ISWS / Latency (min) REM sleep / Latency (min) dSWS / REMS/TST (%) / Shifts (number) Shift from ISWS to AW / Shifts (number) Shift from ISWS to PW / Shifts (number) Shift from REMS to AW / Shifts (number) Shift from REMS to PW / Shifts (number) Shift from dSWS to AW / Shifts (number) Shift from dSWS to PW / Total sleep time TST / dSWS/TST (%): 16 hours recording period; for change in mean duration of REM sleep stage / change in number of REM sleep epochs / change in number of active wake epochs / change in number of deep sleep epochs / change in number of light sleep epochs / change in total time spent in REM sleep / change in total time spent in active wakefulness / change in total time spent in deep (rebound) sleep / change in total time spent in light sleep / change in mean duration of deep sleep stage: 16 hours recording; for change in total time spent in REM sleep / change in total time spent in active wakefulness / change in total time spent in deep (rebound) sleep / change in total time spent in light sleep: vs vehicle

CC(N)Cc1ccccc1 (stereo not shown) [Amphetamine, amphetamine]
period of enhanced active wakefulness (rats, 1 mg/kg): 3 h
period of reduction in light, deep and REM sleep durations (rats, 1 mg/kg): 3 h
Duration (min) Active wake (rats, 1 mg/kg i.p.): 382.4 min
Duration (min) Deep sleep (rats, 1 mg/kg i.p.): 188.0 min
Duration (min) Light sleep (rats, 1 mg/kg i.p.): 242.7 min
Duration (min) Passive wake (rats, 1 mg/kg i.p.): 50.0 min
Duration (min) REM sleep (rats, 1 mg/kg i.p.): 88.6 min
Duration (min) intermediate stage (rats, 1 mg/kg i.p.): 4.0 min
ISWS/TST (%) (rats, 1 mg/kg i.p.): 45.1 ± 5.3 %
Latency (min) ISWS (rats, 1 mg/kg i.p.): 140.6 ± 13.4 min
Latency (min) REM sleep (rats, 1 mg/kg i.p.): 208.6 ± 14.4 min
Latency (min) dSWS (rats, 1 mg/kg i.p.): 161.7 ± 5.3 min
REMS/TST (%) (rats, 1 mg/kg i.p.): 16.9 ± 0.9%
Shifts (number) Shift from ISWS to AW (rats, 1 mg/kg i.p.): 198.8 number
Shifts (number) Shift from ISWS to PW (rats, 1 mg/kg i.p.): 64.4 number
Shifts (number) Shift from REMS to AW (rats, 1 mg/kg i.p.): 66.5 number
Shifts (number) Shift from REMS to PW (rats, 1 mg/kg i.p.): 5.8 number
Shifts (number) Shift from dSWS to AW (rats, 1 mg/kg i.p.): 11.7 number
Shifts (number) Shift from dSWS to PW (rats, 1 mg/kg i.p.): 37.7 number
Total sleep time TST (rats, 1 mg/kg i.p.): 523.3 ± 25.3 min
dSWS/TST (%) (rats, 1 mg/kg i.p.): 36.6 ± 5.7 %
change in mean duration of REM sleep stage (rats, 1 mg/kg): −16%
change in number of REM sleep epochs (rats, 1 mg/kg): −4%
change in number of active wake epochs (rats, 1 mg/kg): +27%
change in number of deep sleep epochs (rats, 1 mg/kg): +73%
change in number of light sleep epochs (rats, 1 mg/kg): −35%
change in total time spent in REM sleep (rats, 1 mg/kg): −4%
change in total time spent in active wakefulness (rats, 1 mg/kg): +27%
change in total time spent in deep (rebound) sleep (rats, 1 mg/kg): +73%
change in total time spent in light sleep (rats, 1 mg/kg): −35%
period of enhanced active wakefulness (rats, 3 mg/kg): 4 h
period of reduction in light, deep and REM sleep durations (rats, 3 mg/kg): 4 h
Duration (min) Active wake (rats, 3 mg/kg i.p.): 441.8 min
Duration (min) Deep sleep (rats, 3 mg/kg i.p.): 207.6 min
Duration (min) Light sleep (rats, 3 mg/kg i.p.): 187.9 min
Duration (min) Passive wake (rats, 3 mg/kg i.p.): 43.5 min
Duration (min) REM sleep (rats, 3 mg/kg i.p.): 71.4 min
Duration (min) intermediate stage (rats, 3 mg/kg i.p.): 4.0 min
ISWS/TST (%) (rats, 3 mg/kg i.p.): 38.3 ± 3.4 %
Latency (min) ISWS (rats, 3 mg/kg i.p.): 228.2 ± 25.0 min
Latency (min) REM sleep (rats, 3 mg/kg i.p.): 338.6 ± 24.3 min
Latency (min) dSWS (rats, 3 mg/kg i.p.): 242.0 ± 19.4 min
REMS/TST (%) (rats, 3 mg/kg i.p.): 14.7 ± 0.7%
Shifts (number) Shift from ISWS to AW (rats, 3 mg/kg i.p.): 178.7 number
Shifts (number) Shift from ISWS to PW (rats, 3 mg/kg i.p.): 62.4 number
Shifts (number) Shift from REMS to AW (rats, 3 mg/kg i.p.): 59.3 number
Shifts (number) Shift from REMS to PW (rats, 3 mg/kg i.p.): 3.3 number
Shifts (number) Shift from dSWS to AW (rats, 3 mg/kg i.p.): 14.8 number
Shifts (number) Shift from dSWS to PW (rats, 3 mg/kg i.p.): 26.6 number
Total sleep time TST (rats, 3 mg/kg i.p.): 460.9 ± 12.0 min
dSWS/TST (%) (rats, 3 mg/kg i.p.): 46.0 ± 3.0 %
change in mean duration of REM sleep stage (rats, 3 mg/kg): −23%
change in mean duration of deep sleep stage (rats, 3 mg/kg): −19%
change in number of REM sleep epochs (rats, 3 mg/kg): −22%
change in number of active wake epochs (rats, 3 mg/kg): +47%
change in number of deep sleep epochs (rats, 3 mg/kg): +91%
change in number of light sleep epochs (rats, 3 mg/kg): −49%
change in total time spent in REM sleep (rats, 3 mg/kg): −22%
change in total time spent in active wakefulness (rats, 3 mg/kg): +47%
change in total time spent in deep (rebound) sleep (rats, 3 mg/kg): +91%
change in total time spent in light sleep (rats, 3 mg/kg): −49%
period of enhanced active wakefulness (rats, 10 mg/kg): 6 h
period of reduction in light, deep and REM sleep durations (rats, 10 mg/kg): 6 h
Duration (min) Active wake (rats, 10 mg/kg i.p.): 498.7 min
Duration (min) Deep sleep (rats, 10 mg/kg i.p.): 181.2 min
Duration (min) Light sleep (rats, 10 mg/kg i.p.): 182.0 min
Duration (min) Passive wake (rats, 10 mg/kg i.p.): 35.6 min
Duration (min) REM sleep (rats, 10 mg/kg i.p.): 53.6 min
Duration (min) intermediate stage (rats, 10 mg/kg i.p.): 4.0 min
ISWS/TST (%) (rats, 10 mg/kg i.p.): 43.2 ± 5.7 %
Latency (min) ISWS (rats, 10 mg/kg i.p.): 284.7 ± 56.1 min
Latency (min) REM sleep (rats, 10 mg/kg i.p.): 440.8 ± 57.8 min
Latency (min) dSWS (rats, 10 mg/kg i.p.): 367.3 ± 5.5 min
REMS/TST (%) (rats, 10 mg/kg i.p.): 13.0 ± 0.9%
Shifts (number) Shift from ISWS to AW (rats, 10 mg/kg i.p.): 201.7 number
Shifts (number) Shift from ISWS to PW (rats, 10 mg/kg i.p.): 49.0 number
Shifts (number) Shift from REMS to AW (rats, 10 mg/kg i.p.): 50.0 number
Shifts (number) Shift from REMS to PW (rats, 10 mg/kg i.p.): 2.2 number
Shifts (number) Shift from dSWS to AW (rats, 10 mg/kg i.p.): 9.7 number
Shifts (number) Shift from dSWS to PW (rats, 10 mg/kg i.p.): 11.6 number
Total sleep time TST (rats, 10 mg/kg i.p.): 422.9 ± 19.5 min
dSWS/TST (%) (rats, 10 mg/kg i.p.): 42.9 ± 5.3 %
change in mean duration of REM sleep stage (rats, 10 mg/kg): −36%
change in mean duration of deep sleep stage (rats, 10 mg/kg): −30%
change in number of REM sleep epochs (rats, 10 mg/kg): −41%
change in number of active wake epochs (rats, 10 mg/kg): +66%
change in number of deep sleep epochs (rats, 10 mg/kg): +66%
change in number of light sleep epochs (rats, 10 mg/kg): −51%
change in total time spent in REM sleep (rats, 10 mg/kg): −41%
change in total time spent in active wakefulness (rats, 10 mg/kg): +66%
change in total time spent in deep (rebound) sleep (rats, 10 mg/kg): +66%
change in total time spent in light sleep (rats, 10 mg/kg): −51%
latencies of all sleep states (rats, 1, 3, 10 mg/kg): significantly increased
mean duration of light sleep (rats, 1, 3, and 10 mg/kg): not significantly modified
mean duration of active wake (rats, different doses (1, 3, 10 mg/kg)): not modified
period of increased wakefulness and reduced sleep states following administration (rats, dose-dependent, 1, 3, 10 mg/kg): 3 to 8 h
effect on the time spent in deep sleep stage (rats, reduced during 3-6 hours following the injection, then increased (rebound)): biphasic effect
